Biological target: T1, h KV1.5 (Homo sapiens, UniProt P22460)
T1 construct: h KV1.5 (KCNA5, NM_002234); expressed in transfected cells; host or cells: Xenopus laevis oocytes injected with cRNA
Test: TEVC recordings in X. laevis oocytes, KV1.5
Format: cell-based
Conditions: for Ionic current block IKur: from inhibition curves, used for simulation
Experimental: The two-electrode voltage clamp (TEVC) technique was used for electrophysiology tests. Channels were expressed in Xenopus laevis oocytes. The initial channel-blocking potential was assessed at 100 μM for the 10 synthesized compounds on TASK-1 and KV1.5 channels.
To obtain X. laevis oocytes, the frogs were anesthetized with 2 g/L of tricaine methanesulfonate, and the ovarian lobes were mechanically separated with forceps. The oocytes were incubated for 120 min in an OR2 solution containing in mM: NaCl 82.5, KCl 2, MgCl2 1, HEPES 5 (pH 7.5) supplemented with 2 mg/ml of collagenase II (Sigma) to remove residual connective tissue and obtain individual oocytes. Subsequently, the oocytes were washed with a ND96 solution containing in mM: NaCl 96, KCl 2, CaCl2 1.8, MgCl2 1, HEPES 5 (pH 7.5, adjusted with NaOH) and stored at 18 °C in ND96 solution supplemented with 1 ml of gentamicin (50 mg/L), sodium pyruvate (275 mg/L) and (90 mg/L) theophylline (inhibits further oocyte maturation) before and after RNA injection.
In order to overexpress the channel in the oocyte, each of the channels to be measured was subcloned (complementary DNA (cDNA); human TASK-1 (KCNK3, NM_002246), h KV1.5 (KCNA5, NM_002234), h NaV1.5 (hH1, M77235), TASK-4/TALK-2 (KCNK17, NM_AF358910), TREK-1 (KCNK2, AF004711) and Kir2.1 (KCNJ2, NM_017296) into pSGEM, pBF1 or pSP64 expression vector, and the cDNA was linearized with NheI or MluI. Complementary RNA (cRNA) was synthesized with the mMESSAGE mMACHINE-Kit (Ambion). The quality of the cRNA was tested on an agarose gel by electrophoresis. cRNA was quantified using a UV-Vis spectrophotometer (NanoDrop 2000). Subsequently, the channel was transfected in the oocytes in stages V and VI, for which […] (TASK-1, KV1.5 or TREK-1), 10 ng (NaV1.5 or TASK-4) o 2.5 ng (Kir2.1) per oocyte of cRNA was injected with a NanojectII microinjector (Drummond Scientific). The oocytes were stored in 24-well plates for 24 to 48 h at 18 °C. After this time, the overexpression of each channel was monitored through electrophysiology.
Two-electrode voltage clamp measurements were performed 24 or 48 h after cRNA injection at room temperature (20–22 °C) in ND96 recording solution with a TurboTEC-10CD (npi) amplifier and a Digidata 1550B (for TASK-1 and KV1.5) and 1440A (for NaV1.5) A/D converter from Axon Instruments. Micropipettes were fabricated from GB 150 TF-8P borosilicate glass capillaries (Science Products) elongated in a DMZ-Universal Puller (Zeitz, Germany). […] ND96 was used as bath solution. Data acquisition was performed using Clampex 10 software (Axon Instruments), and data were analyzed with ClampFit 10 (Axon Instruments) and Origin 7 (Origin Lab Corporation).
For compound inhibition testing, from a holding potential of −80 mV a first test pulse to 0 mV of 1 s duration was followed by a repolarization step at −80 mV for 1 s, directly followed by another 1 s test pulse at +40 mV. The sweep time interval was 10 s for KV1.5 and TASK-1 channels. For the NaV1.5 channel, the block was analyzed with voltage steps from a holding potential of −80 mV. A first depolarizing pulse to −30 mV of 50 ms duration was applied, followed by a 5 ms step to −80 mV. The sweep time interval was 5 s. The compounds were applied at different concentrations to determine the half-maximal inhibitory concentration (IC50), using a fit to the Hill equation.
To test for a putative voltage-dependence of the block by the compound 6f in KV1.5, a 1.5 s voltage step protocol from −80 to +80 mV with +20 mV increments was used. The holding potential was −80 mV and the sweep time interval was 10 s. Currents were analyzed at the end of the voltage pulse. For TASK-1, voltage-dependence of block was probed using a high-potassium solution (KD96) containing in mM: KCl 96, NaCl 2, CaCl2 1.8, MgCl2 1, HEPES 5, (pH 7.5, adjusted with KOH). From a holding potential of 0 mV, voltage was stepped from −80 mV to +80 mV for 1.5 s in +20 mV steps every 10 s. […]

T1 sequence (P22460 whole entry): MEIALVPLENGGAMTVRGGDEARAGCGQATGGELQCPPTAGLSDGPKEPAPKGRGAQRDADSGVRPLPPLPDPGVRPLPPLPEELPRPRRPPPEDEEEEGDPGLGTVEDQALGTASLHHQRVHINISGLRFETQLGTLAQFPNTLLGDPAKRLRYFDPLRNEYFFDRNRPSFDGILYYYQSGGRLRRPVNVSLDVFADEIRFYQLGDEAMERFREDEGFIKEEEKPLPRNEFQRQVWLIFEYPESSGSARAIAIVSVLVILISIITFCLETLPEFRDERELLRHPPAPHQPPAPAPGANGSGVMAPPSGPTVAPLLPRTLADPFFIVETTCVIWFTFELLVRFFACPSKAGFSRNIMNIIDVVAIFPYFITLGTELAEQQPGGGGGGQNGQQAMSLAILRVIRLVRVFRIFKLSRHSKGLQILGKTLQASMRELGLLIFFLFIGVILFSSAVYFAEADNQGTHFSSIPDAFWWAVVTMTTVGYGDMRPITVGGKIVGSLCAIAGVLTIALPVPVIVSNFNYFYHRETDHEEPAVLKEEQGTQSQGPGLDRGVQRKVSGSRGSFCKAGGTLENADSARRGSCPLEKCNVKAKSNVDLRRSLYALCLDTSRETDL

CCCCN(CCCC)CC(=O)Nc1ccc(OC)cc1OC [Compound 6f, 2-(dibutylamine)-N-(2,4-dimethoxiphenyl)acetamide]
Ionic current block IKur (1 μM): 0% | Ionic current block IKur (10 μM): 2.5% | inhibition at 100 µM (100 μM, +40 mV, oocytes, mean ± SD): 55.8 ± 11.5% | Ionic current block IKur (100 μM): 50% | IC50 (X. laevis oocytes, TEVC, block at +40 mV): 81.5 µM | Voltage-dependence of block of KV1.5 (oocytes, 100 μM): no significant voltage-dependence
